Values quoted from earlier work, collected in US6379615B1, “Methods of sterilizing articles” (St. Jude Medical, Inc., priority 2000, dated 2002).

Settings: ethanol at about 70 percent by weight; cited from earlier work

SMILES: CCO [ethanol]
- bactericidal effect of ethanol alone: only mildly bactericidal
